This passage reports EC50 results from US7935708B2, “Dihydropyrazolopyrimidinone derivatives” (MSD K.K., priority 2006, dated 2011).

The structures appear in SMILES notation.

This assay has as its system Cdc2 (Cdk1) tyrosine 15 phosphorylation in WiDr cells. In words: Cdc2 (Cdk1) tyrosine 15-phosphorylation-inhibitory effect in gemcitabine-treated WiDr cells (ELISA). It is filed as cell-based. The note with it: Homo sapiens, gemcitabine 100 nM 24 hours, then test compound with nocodazole 8 hours, read-out: Cdc2-Y15 Phosphorylation-Inhibitory Effect (WiDr, + gemcitabine) (EC50). From the text: Pharmaceutical Text 2 (Method of Determining Drug Potency in Cells (Cdc2 (Cdk1) Tyrosine 15-Phosphorylation-Inhibitory Effect))
Fetal bovine serum (FBS) was obtained from Morgate; media RPMI1640 and DMEM were from Invitrogen; camptothecin was from Sigma; gemcitabine was from Nippon Eli Lilly; nocodazole and protease inhibitor cocktail were from Sigma; rabbit anti-Cdc2 antibody and mouse anti-Cdc2 antibody were from Santa Cruz Biotechnology; rabbit anti-tyrosine 15-phosphorylated Cdc2 antibody and horseradish peroxidase-labeled anti-mouse IgG antibody were from Cell Signaling Technology; sure blue reserve TMB peroxidase substrate was from Kirkegaard and Perry Laboratories.
Human non-small cell lung cancer cells (NCI-H1299) and human colon cancer cells (WiDr) were obtained from American Type Culture Collection (ATCC).
c) Method of Effect Determination:
In the method of using WiDr cells, the cells were suspended in DMEM containing 10% FBS, and the cell suspension was applied to a 96-well Nunclondelta-processed plastic plate in an amount of 2000 cells/100 μL/well, in which the cells were incubated overnight in 5% CO2-95% air at 37° C. Gemcitabine was dissolved in PBS, and diluted with DMEM containing 10% FBS, and then this was applied to the plate on which the cells had been previously sowed, in an amount of 50 μL/well in such a manner that the final concentration of gemcitabine could be 100 nM. Then, the cells were incubated for 24 hours at 37° C. in 5% CO2-95% air. The test compound was stepwise diluted with DMSO, then diluted with 1200 nM nocodazole-containing DMEM containing 10% FBS, and applied to the plate on which the gemcitabine-treated cells had been sowed, in an amount of 50 μL/well. The cells were incubated for 8 hours at 37° C. in 5% CO2-95% air, then the culture was removed, and a cytolytic buffer was added to the plate in an amount of 100 μL/well, shaken at 4° C. for 2 hours, then frozen at −80° C., and melted to give a cell solution. Cdc2 and tyrosine 15-phosphorylated Cdc2 in the cell solution were determined through ELISA, and the ratio of tyrosine 15-phosphorylated Cdc2 to Cdc2 was calculated to obtain the 50% phosphorylation-inhibitory concentration of the test compound to the cells (EC50, nM). Cdc2 was determined through ELISA as follows: A rabbit anti-Cdc2 antibody solution, which had been diluted 200-fold with 50 mM carbonate-bicarbonate buffer (pH 9.6), was applied to a 96-well maxisorp plastic plate in an amount of 50 μL/well, and statically kept overnight at 4° C. so as to fix the antibody on the plate. Next, this was washed three times with PBS, and 5% BSA/PBS was added thereto in an amount of 300 μL/well, and statically kept at room temperature for 2 hours, and then again washed three times with PBS. A mouse anti-Cdc2 antibody solution that had been diluted 100-fold with 1% BSA/TBS-T was added to it in an amount of 50 μL/well, and the cell solution was added thereto in an amount of 10 μL/well and statically kept overnight at 4° C. Next, this was washed three times with 0.1% BSA/TBS-T, and then a horseradish peroxidase-labeled anti-mouse IgG antibody solution that had been diluted 2000-fold with 1% BSA/TBS-T was added thereto in an amount of 70 μL/well, and statically kept at room temperature for 3 hours. Finally, this was washed five times with 0.1% BSA/TBS-T, then a substrate of sure blue reserve TMB peroxidase was added to it in an amount of 100 μL/well, and left for coloration in a dark place at room temperature for 15 minutes. Then, 1 M hydrochloric acid was added to it in an amount of 100 μL/well to stop the reaction, and this was analyzed through colorimetry. […]

Regarding `C=CCn1c(=O)c2cnc(Nc3ccc(N4CCN(C)CC4)c(CO)c3)nc2n1-c1ccsc1` [Example 3, 2-allyl-6-{[3-(hydroxymethyl)-4-(4-methylpiperazin-1-yl)phenyl]amino}-1-(3-thienyl)-1,2-dihydro-3H-pyrazolo[3,4-d]pyrimidin-3-one], the 50% effective concentration (EC50) was determined as 0.13 µM. Regarding `C=CCn1c(=O)c2cnc(Nc3ccc(N4CCN(C)CC4)cc3)nc2n1-c1cccc(N2CCN(C)C2=O)n1` [Example 148, 2-allyl-1-[6-(3-methyl-2-oxoimidazolidin-1-yl)pyridin-2-yl]-6-{[4-(4-methylpiperazin-1-yl)phenyl]amino}-1,2-dihydro-3H-pyrazolo[3,4-d]pyrimidin-3-one], the EC50 was found to be 0.086 µM.
